Assay results as given in the NIST ThermoML archive (doi:10.1021/je900609f).
Numbers after ± are expanded uncertainties.

Settings: Crystal; visual observation

Normal melting temperature: 182 ± 0.7 °C
SMILES: C=CC(=O)Nc1cc(F)c(Br)c(F)c1 [N-(4-bromo-3,5-difluorophenyl)acrylamide]
